Experimental data from patent US20140142127A1, “Stable Compositions of HMG-COA Reductase Inhibitors and Omega-3 Oils” (Almburg, LLC, priority 2012, published 2014).
Values belong to the molecule of their own block, whether it stands above or below them.

Experiment: Storage stability of statin Ca salt suspensions in omega-3 oils, statin and lactone quantified by HPLC
Assay type: physicochemical
Method: (§1) Atorvastatin Ca (At) in ethyl ester of EPA (97% purity from Equatec) was prepared as follows: The drug substance was weighed into a glass vessel containing a magnetic stir bar and the oil was then added by volume to make a 10 mg/ml suspension. The clear oil made an off-white suspension with the drug, which was uniformly dispersed by magnetic stirring. Each formulation also had 1% BHA via ethanol solution (1% of volume of the final suspension from a 100 mg/mL solution of BHA in anhydrous ethanol, resulting in 1 mg/mL BHA or 0.1% w/V). While stirring the suspensions were individually transferred by mass into 250 ul glass vial inserts to about 260 mg, which was essentially a complete fill. Vials were crimped with a teflon-backed seal and placed on stability stations: 25 C/60% RH, 40 C/75% RH and −20 C for reference. Samples were pulled at monthly intervals and prepared for HPLC analysis using a C18 column, samples were transferred, fully dissolved and diluted to 10.0 ml with dry DMF. At and corresponding lactone were quantified from HPLC chromatograms against standards of the At API. Integration was done using the Perkin Elmer software supplied with the HPLC system.
as §1, with “omega-3 free fatty acid” for “ethyl ester of EPA (97% purity from Equatec)”
as §1, with “Rosuvastatin” for “Atorvastatin”, “(Ro)” for “(At)”
RosuvastatinCa (Ro) in omega-3 free fatty acid was prepared as follows: The drug substance was weighed into a glass vessel containing a magnetic stir bar and the oil was then added by volume to make a 10 mg/ml suspension. The clear oil made an off-white suspension with the drug, which was uniformly dispersed by magnetic stirring. […]

[1] = Ethyl ester omega-3 oil, additive CaCO3, 25° C./60% RH, 3 months
[2] = Ethyl ester omega-3 oil, additive CaCO3, 40° C./75% RH, 1 month
[3] = Ethyl ester omega-3 oil, additive CaCO3, 40° C./75% RH, 3 months
[4] = Ethyl ester omega-3 oil, additive CaCl2, 25° C./60% RH, 3 months
[5] = Ethyl ester omega-3 oil, additive CaCl2, 40° C./75% RH, 1 month
[6] = Ethyl ester omega-3 oil, additive CaCl2, 40° C./75% RH, 3 months
[7] = Ethyl ester omega-3 oil, additive CaHPO4, 25° C./60% RH, 3 months
[8] = Ethyl ester omega-3 oil, additive CaHPO4, 40° C./75% RH, 1 month
[9] = Ethyl ester omega-3 oil, additive CaHPO4, 40° C./75% RH, 3 months
[10] = Ethyl ester omega-3 oil, additive None, 40° C./75% RH, 1 month
[11] = Free acid omega-3 oil, additive CaCO3, 25° C./60% RH, 3 months
[12] = Free acid omega-3 oil, additive CaCO3, 40° C./75% RH, 1 month
[13] = Free acid omega-3 oil, additive CaCO3, 40° C./75% RH, 3 months
[14] = Free acid omega-3 oil, additive CaCl2, 25° C./60% RH, 3 months
[15] = Free acid omega-3 oil, additive CaCl2, 40° C./75% RH, 1 month
[16] = Free acid omega-3 oil, additive CaCl2, 40° C./75% RH, 3 months
[17] = Free acid omega-3 oil, additive CaHPO4, 25° C./60% RH, 3 months
[18] = Free acid omega-3 oil, additive CaHPO4, 40° C./75% RH, 1 month
[19] = Free acid omega-3 oil, additive CaHPO4, 40° C./75% RH, 3 months
[20] = Free acid omega-3 oil, additive None, 40° C./75% RH, 1 month
[21] = Triglyceride omega-3 oil, additive None, 40° C./75% RH, 1 month

At Lactone [1]: 0.26%
Atorvastatin [1]: 110.7%
At Lactone [2]: 0.34%
Atorvastatin [2]: 97.6%
At Lactone [3]: 1.87%
Atorvastatin [3]: 111.8%
At Lactone [4]: 0.35%
Atorvastatin [4]: 98.2%
At Lactone [5]: 0.06%
Atorvastatin [5]: 103.2%
At Lactone [6]: 0.48%
Atorvastatin [6]: 97.1%
At Lactone [7]: 0.38%
Atorvastatin [7]: 98.0%
At Lactone [8]: 0.21%
Atorvastatin [8]: 100.9%
At Lactone [9]: 4.80%
Atorvastatin [9]: 90.8%
At Lactone [10]: 0.18%
Atorvastatin [10]: 98.0%
At Lactone [11]: 24.6%
Atorvastatin [11]: 77.3%
At Lactone [12]: 1.5%
Atorvastatin [12]: 101.8%
At Lactone [13]: 35.2%
Atorvastatin [13]: 76.4%
At Lactone [14]: 18.6%
Atorvastatin [14]: 84.2%
At Lactone [15]: 13.5%
Atorvastatin [15]: 87.3%
At Lactone [16]: 19.8%
Atorvastatin [16]: 90.7%
At Lactone [17]: 32.2%
Atorvastatin [17]: 80.9%
At Lactone [18]: 13.6%
Atorvastatin [18]: 99.5%
At Lactone [19]: 25.2%
Atorvastatin [19]: 92.0%
At Lactone [20]: 75.6%
Atorvastatin [20]: 22.8%
At Lactone [21]: 4.6%
Atorvastatin [21]: 85.3%
SMILES: CC(C)c1c(C(=O)Nc2ccccc2)c(-c2ccccc2)c(-c2ccc(F)cc2)n1CC[C@@H](O)C[C@@H](O)CC(=O)O [Atorvastatin, Atorvastatin Ca]

Ro Lactone [1]: 0.31%
Rosuvastatin [1]: 101.9%
Ro Lactone [2]: 0.79%
Rosuvastatin [2]: 79.8%
Ro Lactone [3]: 5.56%
Rosuvastatin [3]: 86.1%
Ro Lactone [4]: 0.23%
Rosuvastatin [4]: 110.4%
Ro Lactone [5]: 0.09%
Rosuvastatin [5]: 93.1%
Ro Lactone [6]: 1.03%
Rosuvastatin [6]: 108.8%
Ro Lactone [7]: 0.26%
Rosuvastatin [7]: 98.2%
Rosuvastatin [8]: 96.2%
Ro Lactone [9]: 9.75%
Rosuvastatin [9]: 83.7%
Ro Lactone [10]: 0.92%
Rosuvastatin [10]: 95.0%
Ro Lactone [11]: 1.0%
Rosuvastatin [11]: 100.2%
Ro Lactone [12]: 0.25%
Rosuvastatin [12]: 105.4%
Ro Lactone [13]: 0.83%
Rosuvastatin [13]: 92.4%
Ro Lactone [14]: 0.44%
Rosuvastatin [14]: 101.9%
Ro Lactone [15]: 0.28%
Rosuvastatin [15]: 105.2%
Ro Lactone [16]: 0.39%
Rosuvastatin [16]: 98.7%
Ro Lactone [17]: 0.74%
Rosuvastatin [17]: 99.9%
Ro Lactone [18]: 0.17%
Rosuvastatin [18]: 99.5%
Ro Lactone [19]: 0.69%
Rosuvastatin [19]: 102.2%
Ro Lactone [20]: 60.0%
Rosuvastatin [20]: 39.1%
Ro Lactone [21]: 2.5%
Rosuvastatin [21]: 100.6%
SMILES: CC(C)c1nc(N(C)S(C)(=O)=O)nc(-c2ccc(F)cc2)c1/C=C/[C@@H](O)C[C@@H](O)CC(=O)O [Rosuvastatin, Rosuvastatin Ca]
